Data on three compounds can be found in patent US11065230B2, “Methods and pharmaceutical compositions for the treatment of systemic mastocytosis” (INSERM (INSTITUT NATIONAL DE LA SANTE ET DE LA RECHERCHE …, priority 2016, dated 2021).

The test system of data set [1] is normal hematopoietic stem and progenitor cells. As to conditions: cited from earlier work.
In data set [2] the test system is HMC1.2 MC line (G560V and D816V KIT mutation). Description: Cell death and proliferation in HMC1.2 mast cell line. The data set is classed as cell-based, human. The following applies: KPT at 100 nM, 500 nM, 1000 nM vs DMSO; for cell proliferation (counting after trypan blue staining): 24, 48 and 72 hours; for cell death (percentage of dead cells, trypan blue staining): 72 hours. On the procedure:
(§1) FIG. 2. […] Upper panel: Cell death data are presented in histograms as mean percentage of dead cells ±SD assessed by counting after blue trypan staining after 72 hours of treatment with KPT at 100 nM, 500 nM, 1000 nM or DMSO (control) in HMC1.1 and HMC1.2 MC lines, n=3 independent experiments. P values are determined by ANOVA Tukeys multiple comparison test. Lower panel: Proliferation curves analysis ±SD of HMC1.1 and HMC1.2 MC lines assessed by blue trypan staining at 24, 48 and 72 hours of treatment with KPT100 nM, 500 nM, KPT1000 nM, or DMSO (control), n=3 independent experiments. P values are determined by one-way ANOVA test, *P<0.05, **P<0,01, ns=not significant. Here we show the effect of KPT-251 treatment on two different human mast cell (MC) lines : ROSA and HMC1 cell lines and on bone marrow cells depleted with erythrocytes, from a patient with aggressive mastocytosis with D816V mutation. ROSA cell lines include a SCF-dependent MC line without KIT mutation (ROSA WT) and a factor-independent MC line with KIT mutation D816V (ROSA D816V). HMC1 factor-independent MC lines include HMC1.1 with […] KIT mutation and HMC1.2 with […] and D816V KIT mutation. […] Human MC lines ROSA WT and ROSA D816V were treated for 72 hours with KPT-251 at 100 nM, 1000 nM, or with DMSO (control) and HMC1.1 and HMC1.2 were treated for 72 hours with KPT-251 at 100 nM, 500 nM, 1000 nM, or with DMSO (control). WT ROSA cell lines were cultured in the presence of human SCF at 100 ng/mL. Cells were plated at 0,5 million/mL at day 0. Cell death percentage was assessed by counting after trypan blue staining or Annexin V labelling analysed by flow cytometry. Proliferation was assessed by counting after trypan blue staining. Bone marrow cells from patient were depleted with erythrocytes and then treated for 7 days with KPT at 100 nm, 500 nM, 1000 nm, or with DMSO (control) in culture media supplemented with SCF at 80 ng/mL and IL6 at 50 ng/mL.

Data set [3] has as its system ROSA WT MC line (SCF-dependent, without KIT mutation). The data set can be described thus: Cell death and proliferation in ROSA WT mast cell line. The data set is classed as cell-based, human. As to conditions: KPT at 100 nM, 1000 nM vs DMSO; for cell proliferation (counting after trypan blue staining): 24, 48 and 72 hours; for cell death (percentage of annexin positive cells): 72 hours, SCF 100 ng/mL. How it is done:
(§2) FIG. 1. […] Upper panel: Cell death data are presented in histograms as mean percentage of annexin positive cells ±SD after 72 hours of treatment with KPT at 100 nM, 1000 nM or with DMSO (control) in ROSA WT and ROSA D816V MC lines, n=6 independent experiments. P values are determined by ANOVA Tukeys multiple comparison test. Lower panel: Proliferation curves analysis ±SD of ROSA WT and ROSA D816V MC lines assessed by counting after blue trypan staining at 24, 48 and 72 hours of treatment with KPT at 100 nM, 1000 nM, or with DMSO (control), n=3 independent experiments. P values are determined by one-way ANOVA test, *P<0.05, ***P<0,001, ****P<0,0001, ns=not significant.
(§3) Here we show the effect of KPT-251 treatment on two different human mast cell (MC) lines : ROSA and HMC1 cell lines and on bone marrow cells depleted with erythrocytes, from a patient with aggressive mastocytosis with D816V mutation. ROSA cell lines include a SCF-dependent MC line without KIT mutation (ROSA WT) and a factor-independent MC line with KIT mutation D816V (ROSA D816V). HMC1 factor-independent MC lines include HMC1.1 with G560V KIT mutation and HMC1.2 with G560V and D816V KIT mutation.
(§4) Human MC lines ROSA WT and ROSA D816V were treated for 72 hours with KPT-251 at 100 nM, 1000 nM, or with DMSO (control) and HMC1.1 and HMC1.2 were treated for 72 hours with KPT-251 at 100 nM, 500 nM, 1000 nM, or with DMSO (control). WT ROSA cell lines were cultured in the presence of human SCF at 100 ng/mL. Cells were plated at 0,5 million/mL at day 0. Cell death percentage was assessed by counting after trypan blue staining or Annexin V labelling analysed by flow cytometry. Proliferation was assessed by counting after trypan blue staining. Bone marrow cells from patient were depleted with erythrocytes and then treated for 7 days with KPT at 100 nm, 500 nM, 1000 nm, or with DMSO (control) in culture media supplemented with SCF at 80 ng/mL and IL6 at 50 ng/mL.

The test system of data set [4] is bone marrow cells from a patient with aggressive mastocytosis with D816V mutation. The data set can be described thus: Cell death, proliferation and histamine secretion in patient bone marrow cells. The data set is classed as cell-based, human. As to conditions: 7 days, KPT at 100 nM, 500 nM, 1000 nM vs DMSO. How it is done:
FIG. 3. […] Upper panel: Cell death data presented as percentage of dead cells, and proliferation data, are presented in histograms. Cell death and proliferation were assessed by counting after blue trypan staining, after 7 days of treatment with KPT at 100 nM, 500 nM, 1000 nM or DMSO (control), n=1. Lower panel Histamin concentration in ng/mL was quantified in cell culture media of bone marrow cells from the patient, after 7 days of treatment with KPT at 100 nM, 500 nM, 1000 nM or DMSO (control), n=1
as §3, §4

For data set [5], the system named is ROSA D816V MC line (KIT mutation D816V). The data set can be described thus: Cell death and proliferation in ROSA D816V mast cell line. The data set is classed as cell-based, human. The following applies: KPT at 100 nM, 1000 nM vs DMSO; for cell proliferation (counting after trypan blue staining): 24, 48 and 72 hours; for cell death (percentage of annexin positive cells): 72 hours. On the procedure: as §2, §3, §4

For data set [6], the system named is HMC1.1 MC line (G560V KIT mutation). Description: Cell death and proliferation in HMC1.1 mast cell line. The data set is classed as cell-based, human. The following applies: KPT at 100 nM, 500 nM, 1000 nM vs DMSO; for cell proliferation (counting after trypan blue staining): 24, 48 and 72 hours; for cell death (percentage of dead cells, trypan blue staining): 72 hours. On the procedure:
as §1

For data set [7], the system named is non-cancerous hematopoietic cells. As to conditions: both in vitro and in vivo; cited from earlier work.
The subject of data set [8] is AML blasts and leukemia-initiating cells. The following applies: cited from earlier work.
The conditions of data set [9]: compared to first generation KPT; cited from earlier work.
For data set [10], the system named is patients with relapsed or refractory AML. The following applies: alone or in combination with conventional therapies; cited from earlier work.

`FC(F)(F)c1cc(-c2ncn(/C=C\c3nnco3)n2)cc(C(F)(F)F)c1` [KPT-251, (Z)-2-(2-(3-(3,5-bis(trifluoromethyl)phenyl)-1H-1,2,4-triazol-1-yl)vinyl)-1,3,4-oxadiazol]: the “effect on normal hematopoietic stem and progenitor cells” value in [1] is “no significant effect”. Also, the “cell proliferation (counting after trypan blue staining)” value is “decreases proliferation” in data set [2]; “significatively decreases proliferation in a dose dependent manner, more importantly in HMC1.2 cell line” in [2] (listed as KPT 251); “decreases proliferation” in [3]; “decrease in cell proliferation” in [3] (listed as KPT 251); “decreases proliferation” in data set [4] (n=1); “decrease in proliferation” in data set [4] (n=1, listed as KPT). For the same compound, the “cell proliferation (counting after trypan blue staining)” value in data set [5] is on record as “decreases proliferation”; in [5] (listed as KPT 251), “decrease in cell proliferation”; in data set [6], “decreases proliferation”; in data set [6] (listed as KPT 251) it was “significatively decreases proliferation in a dose dependent manner”. Besides, the “cell death (percentage of dead cells, trypan blue staining)” value in [2] is listed as “no effect on cell death”; in data set [2] (listed as KPT 251), “weak effect on cell death”; in data set [4] (n=1), “induces cell death”; in data set [4] (n=1, listed as KPT) it was “increase in cell death”; in data set [6] it was “no effect on cell death”; in data set [6] (listed as KPT 251), “weak effect on cell death”. Besides, the “cell death (percentage of annexin positive cells)” value in data set [3] was “induces cell death”; in [3] (listed as KPT 251), “significant dose dependent increase in cell death”; in data set [5], “induces cell death”; in [5] (listed as KPT 251), “significant dose dependent increase in cell death”. For the same compound, the “histamine concentration in cell culture media” value is listed as “decreases the secretion of histamin in culture media” in data set [4] (n=1) and “decrease in media concentration of histamine” in data set [4] (n=1, listed as KPT). Further, the “toxicity in non-cancerous hematopoietic cells” value in [7] is “minimal toxicity”.

Turning to `NC(=O)/C(=C/n1cnc(-c2cc(C(F)(F)F)cc(C(F)(F)F)c2)n1)c1cncnc1` [KPT-8602], the “activity against AML blasts and leukemia-initiating cells” value in data set [8] is on record as “effective activity”. In [9], the brain penetration result is “reduced brain penetration” and the tolerance result was “better tolerance”.

For the compound `O=C(/C=C\n1cnc(-c2cc(C(F)(F)F)cc(C(F)(F)F)c2)n1)NNc1cnccn1` [KPT-330], the induction of remission entry in data set [10] is listed as “active in inducing remission”.
